The text below walks through data of patent US10526347B2, “3-(3H-imidazo[4,5-B]pyridin-2-yl)-1H-pyrazolo[3,4-B]pyridine and therapeutic uses thereof” (Samumed, LLC, priority 2014, dated 2020).

A value given as a limit tells only on which side of the number the result lay.

Holding throughout (assay type): cell-based
Experiment [1] has as its system Wnt activity (SW480 colon carcinoma cells stably expressing the Sp5-Luc reporter gene). Kind of experiment: Sp5-Luc reporter gene screening assay for Wnt activity. Conditions: Homo sapiens. Summed up:
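The SW480 cells carry a lentiviral luciferase reporter driven by a Sp5 promoter with eight TCF/LEF sites. They were plated at 10,000 cells/well in 10% FCS overnight, then pinned with 50 nl of 3-fold dilutions (10 mM top source concentration) into 50 μl.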

Experiment [2] concerns primary human fibroblasts derived from IPF patients (LL29 cells). The experiment is described as follows: Inhibition of the fibrotic process in TGF-β1 treated IPF patient fibroblasts (αSMA staining). The conditions noted are these: Fibroblast, 96 h, LL29 cells treated with TGF-β1 (20 ng/mL), 4 days, read-out: Inhibition of fibrosis EC50. The gist of the method: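 LL29 IPF lung fibroblasts in F12 with 1% FBS, compound (11-point, 10 μM to 1.87 nM, 0.1% DMSO) plus TGF-β1 20 ng/mL for 4 days at 37° C. αSMA-positive % of SYTOX-negative cells by immunofluorescence imaging, normalized to TGF-β1 wells; EC50 from non-linear regression of triplicates.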

In experiment [3] the test system is primary human mesenchymal stem cells (hMSCs). Kind of experiment: Chondrogenesis induction in primary human mesenchymal stem cells (chondrogenic nodules, Rhodamine B / Nile Red). The conditions noted are these: 6 days; for EC (100% of TGF-beta3 activity): Homo sapiens, Mesenchymal stem cells, 144 h, concentration required to induce chondrogenesis equivalent to TGF-β3 10 ng/mL, read-out: Conc (nM) of 100% TGF-β3 activity; for Max. Activity as % TGF-β3 activity: positive control TGF-β3 10 ng/mL, nodule number normalized to DMSO. The method, then: The above synthesized compounds were screened using primary human mesenchymal stem cells (hMSCs) to determine their ability to induce chondrogenesis (process by which cartilage is developed).
Primary human mesenchymal stem cells (hMSCs) were purchased from Lonza (Walkersville, Md.) and expanded in Mesenchymal Stem Cell Growth Media (Lonza). Cells between passage 3 and 6 were used for the experiments.
Each compound was dissolved in DMSO as a 10 mM stock and used to prepare compound source plates. Serial dilution (1:3, 6-point dose-response curves from 2700 nM to 10 nM) and compound transfer was performed using the ECHO 550 (Labcyte, Sunnyvale, Calif.) into 96-well clear bottom assay plates (Greiner Bio-One) with appropriate DMSO backfill for a final DMSO concentration of 0.03%. hMSCs were plated at 20,000 cells/well in 250 μL/well Incomplete Chondrogenic Induction Medium (Lonza; DMEM, dexamethasone, ascorbate, insulin-transferrin-selenium [ITS supplement], gentamycin-amphotericin [GA-1000], sodium pyruvate, proline and L-glutamine). TGF-β3 (10 ng/mL) was used as a positive control for differentiation while negative control wells were treated with 75 nL DMSO for normalization and calculating EC50 values. Cells were incubated at 37° C. and 5% CO2 for 6 days. To image chondrogenic nodules, the cells were fixed using 4% formaldehyde (Electron Microscopy Sciences), and stained with 2 μg/mL Rhodamine B (Sigma-Aldrich) and 20 μM Nile Red (Sigma-Aldrich) [Johnson K., et. al, A Stem Cell-Based Approach to Cartilage Repair, Science, (2012), 336(6082). 717-721]. The nodules imaged (4 images per well at 4× magnification) by excitation at 531 nm and emission at 625 nm and quantified using the CellInsight CX5 (Thermo Scientific). Number of nodules in each well was normalized to the average of 3 DMSO treated wells on the same plate using Excel (Microsoft Inc.). The normalized averages (fold change over DMSO) of 3 replicate wells for each compound concentration were calculated. Due to solubility limitations of some of the compounds, curve fitting was incomplete leading to inaccurate EC50 determinations.
Using TGF-β3 as a positive control, the concentration of test compounds required to induce equivalent levels of chondrogenesis is reported. In addition, the maximum activity of each compound and the respective dose that each compound reached maximum chondrogenesis activity is reported.

Molecule `CCC(=O)Nc1cncc(-c2cnc3[nH]nc(-c4nc5c(-c6cccs6)ccnc5[nH]4)c3c2)c1` [Compound 285, N-(5-(3-(7-(Thiophen-2-yl)-3H-imidazo[4,5-b]pyridin-2-yl)-1H-pyrazolo[3,4-b]pyridin-5-yl)pyridin-3-yl)propionamide] registered an IC50 in experiment [1] of 3.3 nM. The concentration giving a half-maximal response (EC50) in experiment [2] is ≤ 9 nM. In experiment [3], the EC (100% of TGF-beta3 activity) stood at 48.9 nM.

The molecule `Cc1ccncc1-c1cnc2[nH]nc(-c3nc4c(-c5cc(F)cc(CNS(C)(=O)=O)c5)ccnc4[nH]3)c2c1` [Compound 393, N-(3-Fluoro-5-(2-(5-(4-methylpyridin-3-yl)-1H-pyrazolo[3,4-b]pyridin-3-yl)-3H-imidazo[4,5-b]pyridin-7-yl)benzyl)methanesulfonamide] showed an IC50 in experiment [1] of 20.6 nM. In addition, the concentration giving a half-maximal response (EC50) in experiment [2] came to 674 nM. For the same molecule, in experiment [3], the “Max. Activity as % TGF-β3 activity” value is listed as 100% and the EC (100% of TGF-beta3 activity) came to 140 nM.

In experiment [1], `Fc1cccc(-c2ccnc3[nH]c(-c4n[nH]c5ncc(-c6cn[nH]c6)cc45)nc23)c1` [Compound 911, 3-(7-(3-Fluorophenyl)-3H-imidazo[4,5-b]pyridin-2-yl)-5-(1H-pyrazol-4-yl)-1H-pyrazolo[3,4-b]pyridine] had a half-maximal inhibitory concentration (IC50) of 30 nM. The concentration for a half-maximal effect (EC50) in experiment [2] is 29 nM. Moreover, in experiment [3], the “Max. Activity as % TGF-β3 activity” value was found to be 100% and the EC (100% of TGF-beta3 activity) amounted to 110 nM.

`Cc1cn(-c2ccnc3[nH]c(-c4n[nH]c5ncc(-c6cncc(NC(=O)CC(C)C)c6)cc45)nc23)cn1` [Compound 160, 3-Methyl-N-(5-(3-(7-(4-methyl-1H-imidazol-1-yl)-3H-imidazo[4,5-b]pyridin-2-yl)-1H-pyrazolo[3,4-b]pyridin-5-yl)pyridin-3-yl)butanamide] showed an IC50 in experiment [1] of 8.3 nM. In addition, the EC (100% of TGF-beta3 activity) in experiment [3] was 26.8 nM.

In turn, `Nc1cncc(-c2cnc3[nH]nc(-c4nc5c(-c6ccccc6F)ccnc5[nH]4)c3c2)c1` [Compound 45, 5-(3-(7-(2-Fluorophenyl)-3H-imidazo[4,5-b]pyridin-2-yl)-1H-pyrazolo [3,4-b]pyridin-5-yl)pyridin-3-amine] yielded an IC50 in experiment [1] of 3.7 nM. For the same molecule, the EC50 in experiment [2] is ≤ 9 nM. Also, in experiment [3], the “Max. Activity as % TGF-β3 activity” value worked out at 300% and the EC (100% of TGF-beta3 activity) was 59.9 nM.

`CC(C)Nc1cncc(-c2cnc3[nH]nc(-c4nc5c(-c6cccnc6)ccnc5[nH]4)c3c2)c1` [Compound 75, N-Isopropyl-5-(3-(7-(pyridin-3-yl)-3H-imidazo[4,5-b]pyridin-2-yl)-1H-pyrazolo[3,4-b]pyridin-5-yl)pyridin-3-amine] had an IC50 in experiment [1] of 45.4 nM. Moreover, the EC (100% of TGF-beta3 activity) in experiment [3] stood at 58.5 nM.

As to `CCCCC(=O)Nc1cncc(-c2cnc3[nH]nc(-c4nc5c(-c6cc(F)cc(NCCN(C)C)c6)ccnc5[nH]4)c3c2)c1` [Compound 432, N-(5-(3-(7-(3-((2-(Dimethylamino)ethyl)amino)-5-fluorphenyl)-3H-imidazo[4,5-b]pyridin-2-yl)-1H-pyrazolo[3,4-b]pyridin-5-yl)pyridin-3-yl)pentanamide], in experiment [1], half-maximal inhibition (IC50) required 21.7 nM. The EC (100% of TGF-beta3 activity) in experiment [3] came out at 57 nM.

`O=C(Nc1cncc(-c2cnc3[nH]nc(-c4nc5cccnc5[nH]4)c3c2)c1)C1CCCCC1` [Compound 228, N-(5-(3-(3H-Imidazo[4,5-b]pyridin-2-yl)-1H-pyrazolo[3,4-b]pyridin-5-yl)pyridin-3-yl)cyclohexanecarboxamide]: the IC50 in experiment [1] was > 10000 nM. Further, the EC50 in experiment [2] was ≤ 9 nM.

In the case of `c1cc(-c2ccoc2)c2nc(-c3n[nH]c4ncc(-c5cncc(CNCC6CCCC6)c5)cc34)[nH]c2n1` [Compound 282, 1-Cyclopentyl-N-((5-(3-(7-(furan-3-yl)-3H-imidazo[4,5-b]pyridin-2-yl)-1H-pyrazolo[3,4-b]pyridin-5-yl)pyridin-3-yl)methyl)methanamine], the IC50 in experiment [1] was > 10000 nM. Also, the EC50 in experiment [2] was ≥ 9990 nM.
